Reference: publication PMC11845477, “Exploring the principles behind antibiotics with limited resistance” (Nature Communications, 2025)
Where a SMILES comes first, the peptide text is derived from it. Bridges are numbered along the chain shown (N, C = ends). [ ]: non-standard residue; d: D form. The star is where a group is joined. X1 = NC[C@@H](CC(=O)*)c1cccc(Cl)c1; Dab = NCC[C@H](N)C(=O)O; Dap = NC[C@H](N)C(=O)O

How the values were obtained:
[1] = system: E. coli ATCC 25922 (SEN) and E. coli NCTC13846 (MDR); assay: Frequency-of-resistance (FoR) assay, relative MIC of mutants; assay type: cell-based, Escherichia coli
Method: The susceptibility of antibiotics to resistance development was evaluated in two strains of each bacterial species: a multidrug-resistant strain and an antibiotic-sensitive strain of Escherichia coli, Klebsiella pneumoniae, Acinetobacter baumannii, and Pseudomonas aeruginosa. To explore first-step resistance, we previously used a standard protocol for spontaneous frequency-of-resistance analysis (FoR assay) at multiple concentrations of each antibiotic[10],[28],[31]–[33]. […] For all other combinations, approximately 10^10 bacterial cells were exposed to one of each antibiotic on agar plates for two days at concentrations where the given strain is susceptible. We examined resistance levels by contrasting the minimum inhibitory concentration (MICs) of the mutated strains to the original wild-type bacterial strain (i.e., relative MIC).
To estimate the frequency of spontaneous mutations that confer resistance in a microbial population, we conducted a frequency of resistance (FoR) assay following established protocols[10],[31]–[33]. […] Prior to plating, bacteria were grown overnight in MHB medium at 37 °C and 250 RPM, then centrifuged and washed in MHB. All experiments were performed in triplicate, and plates were incubated at 37 °C for 48 hours. Total colony-forming units (CFUs) were determined by plating appropriate dilutions onto antibiotic-free MHB agar. Resistance frequencies were calculated by dividing the number of resistant colonies by the initial viable cell count. From the plates with the highest antibiotic concentration, ten colonies were selected for MIC determination and whole-genome sequencing.
A robotic liquid handling system was used to automatically prepare a 11 to 16-step serial dilution in 384-well microtiter plates (Greiner). A final concentration of 5 × 10^5 bacterial cells per mL were inoculated into each well containing 60 µL MHB medium. Bacterial cultures were incubated at 37 °C with continuous shaking (Infors shaker, 900 rpm with 3 mm throw) for 18 hours (2 replicates from each). Cell growth was monitored by measuring the optical density (OD600 values, using Biotek Synergy microplate reader). MIC was defined as the antibiotic concentration of complete growth inhibition (i.e., OD600 < 0.05). Relative MIC was calculated as follows:1 relativeMIC=MICevolved/MICancestor […]
Supplementary Figure 3. Resistance levels following the frequency of resistance assay across bacterial strains. The level of resistance was measured as the fold change in relative MIC between evolved and ancestral strains. Data are grouped by bacterial strain (A. baumannii (AB), E. coli (EC), K. pneumoniae (KP), and P. aeruginosa (PA)) and categorized as either multidrug-resistant (MDR) or sensitive (SEN). Each data point represents a laboratory evolved line, and boxplots show the median, first and third quartiles, with whiskers indicating the 5th and 95th percentiles. […]
analysis was performed using two-sided Dunn’s post-hoc test with Benjamini-Hochberg correction for multiple comparisons (**/ * indicates p < 0.01/ 0.05). For detailed information on antibiotic and bacterial species, see Supplementary Table 1. For mode of action groups, refer to Table 1. Source data are provided as a Source Data file.

[2] = system: P. aeruginosa ATCC BAA-3107 (SEN) and P. aeruginosa LESB58 (MDR); assay: microbe, parasite or virus in culture; assay type: cell-based, Pseudomonas aeruginosa; conditions: for MIC: across three biological replicates
Method: This study focused on multiple bacterial strains, as follows. For the FoR and ALE experiments, 2 strains per species were chosen: E. coli ATCC 25922, K. pneumoniae ATCC 10031, A. baumannii ATCC 17978, and P. aeruginosa ATCC BAA-3107 as sensitive (SEN) strains, and E. coli NCTC13846, K. pneumoniae ATCC 700603, A. baumannii ATCC BAA-1605 and P. aeruginosa LESB58 as multi-drug resistant (MDR) strains. Functional metagenomic screens were performed with E. coli ATCC 25922 and K. pneumoniae ATCC 10031 strains. To determine the dose-kill properties of the different antibiotics, an E. coli strain (ATCC 25922) expressing a yellow fluorescent protein (pZS2R, YFP, CHL^R) and a red fluorescent protein (pZS2R, mCherry, CHL^R) was used.
Unless otherwise indicated, cation-adjusted Mueller-Hinton Broth 2 (MHB, Millipore) medium was used throughout the study, except for SCH79797 (SCH).
A robotic liquid handling system was used to automatically prepare a 11 to 16-step serial dilution in 384-well microtiter plates (Greiner). A final concentration of 5 × 10^5 bacterial cells per mL were inoculated into each well containing 60 µL MHB medium. Bacterial cultures were incubated at 37 °C with continuous shaking (Infors shaker, 900 rpm with 3 mm throw) for 18 hours (2 replicates from each). Cell growth was monitored by measuring the optical density (OD600 values, using Biotek Synergy microplate reader). MIC was defined as the antibiotic concentration of complete growth inhibition (i.e., OD600 < 0.05). Relative MIC was calculated as follows:1 relativeMIC=MICevolved/MICancestor

[3] = E. coli ATCC 25922 (EC-SEN), evolved line 1
[4] = E. coli ATCC 25922 (EC-SEN), evolved line 2
[5] = E. coli ATCC 25922 (EC-SEN), evolved line 3
[6] = E. coli NCTC 13846 (EC-MDR), evolved line 1
[7] = E. coli NCTC 13846 (EC-MDR), evolved line 1, evolved vs ancestor
[8] = E. coli NCTC 13846 (EC-MDR), evolved line 2
[9] = E. coli NCTC 13846 (EC-MDR), evolved line 2, evolved vs ancestor
[10] = E. coli NCTC 13846 (EC-MDR), evolved line 3
[11] = E. coli NCTC 13846 (EC-MDR), evolved line 3, evolved vs ancestor
[12] = P. aeruginosa ATCC BAA 3107 (PA-SEN), ancestor strain, sheet fig 2a
[13] = P. aeruginosa LESB 58 (PA-MDR), ancestor strain, sheet fig 2a
[14] = Pseudomonas aeruginosa ATCC BAA-3107 (PA-SEN)
[15] = Pseudomonas aeruginosa LESB 58 (PA-MDR)
[16] = Escherichia coli ATCC 25922 (EC-SEN), evolved line 1
[17] = Escherichia coli ATCC 25922 (EC-SEN), evolved line 2
[18] = Escherichia coli ATCC 25922 (EC-SEN), evolved line 3
[19] = Escherichia coli ATCC 25922 (EC-SEN), evolved line 1 versus ancestor
[20] = Escherichia coli ATCC 25922 (EC-SEN), evolved line 2 versus ancestor
[21] = Escherichia coli ATCC 25922 (EC-SEN), evolved line 3 versus ancestor

`CC(C)C[C@@H]1NC(=O)[C@@H](Cc2ccccc2)NC(=O)[C@H](CCN)NC(=O)[C@@H](NC(=O)[C@H](CN)NC(=O)[C@@H](NC(=O)C[C@H](CN)c2cccc(Cl)c2)[C@@H](C)O)CCNC(=O)[C@H]([C@@H](C)O)NC(=O)[C@H](CCN)NC(=O)[C@H](CCN)NC1=O` [SPR206] (X1-T[Dap][Dab][Dab][dF]L[Dab][Dab]T; lactam 3-C (inferred); N-terminus assumed) was tested, and the MIC of evolved line [1, 3] was 32 µg/mL, the “Relative MIC” value ([1]; E. coli ATCC 25922 (EC-SEN), evolved line 1, evolved vs ancestor) was 128 and the MIC of evolved line [1, 4] was 32 µg/mL. For the same compound, the “Relative MIC” value ([1]; E. coli ATCC 25922 (EC-SEN), evolved line 2, evolved vs ancestor) was 128, the MIC of evolved line [1, 5] was 32 µg/mL and the “Relative MIC” value ([1]; E. coli ATCC 25922 (EC-SEN), evolved line 3, evolved vs ancestor) was 128. For the same compound, the MIC of evolved line [1, 6] was 64 µg/mL, the “Relative MIC” value [1, 7] was 16 and the MIC of evolved line [1, 8] was 64 µg/mL. For the same compound, the “Relative MIC” value [1, 9] was 16, the MIC of evolved line [1, 10] was 64 µg/mL and the “Relative MIC” value [1, 11] was 16. For the same compound, the “Relative MIC” value ([1]; FoR assay, Escherichia coli ATCC 25922 (EC-SEN), evolved line 1) was 128, the “Relative MIC” value ([1]; FoR assay, Escherichia coli ATCC 25922 (EC-SEN), evolved line 2) was 128 and the “Relative MIC” value ([1]; FoR assay, Escherichia coli ATCC 25922 (EC-SEN), evolved line 3) was 128. For the same compound, the “Relative MIC” value ([1]; FoR assay, Escherichia coli NCTC 13846 (EC-MDR), evolved line 1) was 16, the “Relative MIC” value ([1]; FoR assay, Escherichia coli NCTC 13846 (EC-MDR), evolved line 2) was 16 and the “Relative MIC” value ([1]; FoR assay, Escherichia coli NCTC 13846 (EC-MDR), evolved line 3) was 16. For the same compound, the MIC of ancestor ([2]; P. aeruginosa ATCC BAA 3107 (PA-SEN), ancestor strain) was 1 µg/mL, the MIC of ancestor [2, 12] was 1 µg/mL and the MIC of ancestor ([2]; P. aeruginosa LESB 58 (PA-MDR), ancestor strain) was 4 µg/mL. The MIC of ancestor [2, 13] was 4 µg/mL, the MIC [2, 14] was 1 µg/mL and the MIC [2, 15] was 4 µg/mL.
For `C[C@@H](O)[C@H]1C(=O)N2C(C(=O)O)=C(S[C@H]3CC[S@@+]([O-])C3)S[C@H]12` [Sulopenem], the MIC of evolved line [1, 6] was 0.0625 µg/mL, the “Relative MIC” value [1, 7] was 2 and the MIC of evolved line [1, 8] was 0.0312 µg/mL. For the same compound, the “Relative MIC” value [1, 9] was 1, the MIC of evolved line [1, 10] was 0.0312 µg/mL and the “Relative MIC” value [1, 11] was 1. It also gave an MIC of evolved line [1, 16] of 0.0156 µg/mL, an MIC of evolved line [1, 17] of 0.0156 µg/mL and an MIC of evolved line [1, 18] of 0.0156 µg/mL. For the same compound, the “Relative MIC” value [1, 19] was 1, the “Relative MIC” value [1, 20] was 1 and the “Relative MIC” value [1, 21] was 1. For the same compound, the MIC [2, 14] was 16 µg/mL and the MIC [2, 15] was greater than 32 µg/mL.
`C[C@@H]1CN2c3c(cc4c(N5C(=O)OC[C@@H]5C)noc4c3F)CC3(C(=O)NC(=O)NC3=O)[C@H]2[C@H](C)O1` [Zoliflodacin] was tested, and the “Relative MIC” value [1, 19] was 8, the “Relative MIC” value [1, 20] was 8 and the “Relative MIC” value [1, 21] was 8. For the same compound, the MIC ([1]; Escherichia coli, read-out: MIC of evolved line, Escherichia coli ATCC 25922 (EC-SEN), evolved line 2) was 16 µg/mL, the MIC ([2]; Pseudomonas aeruginosa, ATCCBAA3107, Pseudomonas aeruginosa ATCC BAA-3107 (PA-SEN)) was 8 µg/mL and the MIC ([2]; Pseudomonas aeruginosa, ATCCBAA3107, Pseudomonas aeruginosa LESB 58 (PA-MDR)) was greater than 32 µg/mL.
Tridecaptin M152-P3 gave an MIC of evolved line [1, 16] of 4 µg/mL, an MIC of evolved line [1, 17] of 4 µg/mL and an MIC of evolved line [1, 18] of 4 µg/mL. For the same compound, the MIC [2, 14] was 32 µg/mL and the MIC [2, 15] was greater than 32 µg/mL.
polymyxin-B gave an MIC of evolved line [1, 3] of 4 µg/mL, an MIC of evolved line [1, 4] of 1 µg/mL and an MIC of evolved line [1, 5] of 8 µg/mL. The MIC of evolved line [1, 6] was 4 µg/mL, the MIC of evolved line [1, 8] was 4 µg/mL and the MIC of evolved line [1, 10] was 4 µg/mL. The MIC of ancestor [2, 12] was 1 µg/mL, the MIC of ancestor [2, 13] was 2 µg/mL and the MIC of ancestor ([2]; Pseudomonas aeruginosa LESB 58 (PA-MDR), ancestor) was 2 µg/mL. It also gave an MIC of ancestor ([2]; ancestor PA-MDR (Pseudomonas aeruginosa LESB 58)) of 2 µg/mL and an MIC of ancestor ([2]; ancestor PA-SEN (Pseudomonas aeruginosa ATCC BAA 3107)) of 1 µg/mL.
